Data on three molecules can be found in US9145411B2, “Substituted amino-pyrimidine derivatives” (Asana Biosciences, LLC, priority 2012, dated 2015).

One assay deals with PI3Kα mutation E545K (Homo sapiens, UniProt P42336, E545K). The assay can be described thus: PI3 Kinase TR-FRET assay, PI3Kα mutation E545K. It counts as biochemical. To be noted: read-out: inhibition of PI3Kα mutation E545K, IC50. The method, then:
(§1) The ability of compounds of the invention to inhibit PI3K activity was determined in a homogeneous TR-FRET assay using a PI3K assay kit (Millipore, USA; cat #33-016) according to manufacturer's instructions. PI3-Kinases (isoforms α, β, γ and δ) catalyze the phosphorylation of phosphatidylinositol, PIP2 to PIP3 in the presence of ATP and Mg^2+. The PIP3 product is detected by displacement of biotin-PIP3 from an energy transfer complex consisting of Europium labeled anti-GST monoclonal antibody, a GST-tagged PH domain, biotinylated PIP3 and Streptavidin-APC. Excitation of Europium in the complex results in an energy transfer to the APC and a fluorescence emission at 665 nm. The PIP3 product displaces biotin-PIP3 from the complex resulting in a loss of energy transfer and thus a decrease in signal.
(§2) To test for the ability of compounds to inhibit the activity of PI3Kα (wild-type), exemplary compounds of formula (I) were dissolved in DMSO and directly distributed into 384-well plates at a volume of 0.5 μL. 14.5 μL of P110/P85α/PIP2 mixture in buffer (obtained from the Millipore kit) containing MgCl2 (40 mM) and DTT (5 mM) was added to compound wells and incubated for 60 minutes at room temperature. P110/P85α was expressed in SF9 insect cells and purified nickel column extraction. Five ng of wild-type P110/P85α was used in the assay. The kinase reaction was started by the addition of ATP. The assay concentrations of both PIP2 and ATP were 10 μM. The reaction mixture was incubated for 30 minutes at room temperature and was terminated by the addition of stop mix and detection mix. Fluorescence was measured at 615 and 665 nm upon excitation at 340 nm in a Victor™ V5 fluorometer (Perkin Elmer, USA). The fluorescence emission ratio at 665 to 615 nm, proportional to the kinase activity, was plotted against the compound concentration to generate dose-response curves and IC50 values were determined using GraphPad Prism® 5 software.
(§3) The activity of PI3Kα mutations H1047R and E545K were assayed in a similar manner to the assay protocol described above for PI3Kα (wild type). The compounds of formula (I) caused inhibition of PI3Kα mutations H1047R (a mutation associated with breast and gastric cancers) and E545K (a mutation associated with colorectal tumors, glioblastomas, gastric cancers, breast cancers, and lung cancers). For example, each of the compounds of Example 3, 7, 21, 47, 48 and 49 caused inhibition of each of the PI3Kα mutations H1047R and E545K with IC50 values<50 nM.
Background: TR-FRET usually uses a lanthanide donor and a delayed reading to cut background.

For the next assay, the target named is PI3Kα mutation H1047R (Homo sapiens, UniProt P42336, H1047R). Put plainly: PI3 Kinase TR-FRET assay, PI3Kα mutation H1047R. It counts as biochemical. The settings on record: read-out: inhibition of PI3Kα mutation H1047R, IC50. The method, then:
as §1, §2, §3

The next assay concerns the target PI3 kinase isoform γ (Homo sapiens, UniProt P48736). The assay can be described thus: PI3 Kinase TR-FRET assay, isoform γ. It counts as biochemical. To be noted: read-out: inhibition of PI3 kinase isoform γ, IC50. The method, then: as §1, §2
The activity of PI3 kinase isoforms β, γ and δ were assayed in a similar manner to the assay protocol described above for PI3Kα, by substituting the appropriate p110/p85 isoform for the p110α/p85α. Compounds of formula (I) caused inhibition of PI3 kinase isoforms β, γ and δ as determined by these assays. For example, the compounds of Examples 3 and 21 each caused inhibition of PI3 kinase isoform β with IC50 values<500 nM. The compounds of Examples 3, 7, 21, 47, 48 and 49 each caused inhibition of PI3 kinase isoform γ with IC50 values<500 nM. The compounds of Example 3, 7, 47, 48, and 49 caused inhibition of PI3 kinase isoform δ with IC50 values<1 μM.

A further assay deals with pS6RP. Put plainly: In vivo PK/PD study, U87MG tumor xenograft, pS6RP. The settings on record: U87MG tumor-bearing xenograft mice, 50 mg/kg po. How it is done:
PC3 cells are cultured at 37° C. in a 5% CO2 incubator using Hams F12 K medium. Ten million (10^7) cells are injected subcutaneously to the right flank region of athymic male mice (Harlan, age: 6-7 weeks, weight: about 20 g). Tumor bearing mice are randomized when the tumor volume reaches about 250 mm^3 and three mice are used per each time point. Test compounds of formula (I) are typically formulated in 40% HPCD in 1×PBS, pH 7.4 or in 10% Ethanol/40% Solutol/50% 50 mM aq. methanesulfonic acid and dosed orally at 50 mg/kg single dose (dose volume—10 mL/kg). Plasma and tumor samples are collected at 0 (vehicle control animals), 1, 4 and 24 hours post dosing. Blood is drawn (retro orbital) to a tube containing 0.2% EDTA for plasma collection. […] Tumor and plasma drug concentrations are measured for PK analysis using LC-MS.
Snap frozen tumor samples are pulverized in a mortar (Belart) containing liquid nitrogen and tumor powder is stored at −80° C. until analysis. […] The detection for pAKT is based on chemiluminescence and pS6RP is based on absorbance. […]
In vivo pharmacokinetic/pharmacodynamic (PK/PD) studies were carried out in a similar manner using U87MG tumor cells (glioma cancer cell line with a PTEN null mutation) and the corresponding tumor-bearing xenograft mice, and compounds of the invention were determined to be active in this assay. […]

Sequence of PI3Kα mutation H1047R (P42336 whole entry H1047R): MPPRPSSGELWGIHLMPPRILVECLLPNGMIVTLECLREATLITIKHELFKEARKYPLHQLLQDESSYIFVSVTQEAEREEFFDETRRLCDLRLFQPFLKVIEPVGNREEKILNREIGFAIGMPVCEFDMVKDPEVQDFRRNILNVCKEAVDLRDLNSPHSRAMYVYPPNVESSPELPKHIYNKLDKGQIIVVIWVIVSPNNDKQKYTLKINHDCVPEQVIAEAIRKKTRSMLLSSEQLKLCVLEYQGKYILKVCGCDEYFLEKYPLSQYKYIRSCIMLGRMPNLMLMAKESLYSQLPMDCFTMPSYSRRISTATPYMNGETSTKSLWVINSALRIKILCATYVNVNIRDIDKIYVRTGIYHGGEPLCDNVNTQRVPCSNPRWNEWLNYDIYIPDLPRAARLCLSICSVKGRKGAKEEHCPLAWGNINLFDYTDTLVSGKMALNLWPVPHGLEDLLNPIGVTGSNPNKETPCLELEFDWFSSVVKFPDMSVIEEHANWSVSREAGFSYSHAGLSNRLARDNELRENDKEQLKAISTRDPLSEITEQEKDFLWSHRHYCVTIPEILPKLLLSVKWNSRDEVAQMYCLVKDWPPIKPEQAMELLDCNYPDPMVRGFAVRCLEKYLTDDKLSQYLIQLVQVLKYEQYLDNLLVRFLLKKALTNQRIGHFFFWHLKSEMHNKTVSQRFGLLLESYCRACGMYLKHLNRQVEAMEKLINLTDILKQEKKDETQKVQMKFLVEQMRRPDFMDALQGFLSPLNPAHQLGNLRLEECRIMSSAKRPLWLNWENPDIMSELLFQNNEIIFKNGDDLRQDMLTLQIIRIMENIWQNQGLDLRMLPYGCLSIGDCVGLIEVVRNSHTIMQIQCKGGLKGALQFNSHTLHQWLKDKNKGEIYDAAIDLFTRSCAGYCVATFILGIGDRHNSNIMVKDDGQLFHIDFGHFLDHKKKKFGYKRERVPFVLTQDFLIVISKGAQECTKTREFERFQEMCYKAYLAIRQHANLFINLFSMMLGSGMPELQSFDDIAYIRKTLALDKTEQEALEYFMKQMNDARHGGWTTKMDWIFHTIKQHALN
Sequence of PI3Kα mutation H1047R (P27986 whole entry partner): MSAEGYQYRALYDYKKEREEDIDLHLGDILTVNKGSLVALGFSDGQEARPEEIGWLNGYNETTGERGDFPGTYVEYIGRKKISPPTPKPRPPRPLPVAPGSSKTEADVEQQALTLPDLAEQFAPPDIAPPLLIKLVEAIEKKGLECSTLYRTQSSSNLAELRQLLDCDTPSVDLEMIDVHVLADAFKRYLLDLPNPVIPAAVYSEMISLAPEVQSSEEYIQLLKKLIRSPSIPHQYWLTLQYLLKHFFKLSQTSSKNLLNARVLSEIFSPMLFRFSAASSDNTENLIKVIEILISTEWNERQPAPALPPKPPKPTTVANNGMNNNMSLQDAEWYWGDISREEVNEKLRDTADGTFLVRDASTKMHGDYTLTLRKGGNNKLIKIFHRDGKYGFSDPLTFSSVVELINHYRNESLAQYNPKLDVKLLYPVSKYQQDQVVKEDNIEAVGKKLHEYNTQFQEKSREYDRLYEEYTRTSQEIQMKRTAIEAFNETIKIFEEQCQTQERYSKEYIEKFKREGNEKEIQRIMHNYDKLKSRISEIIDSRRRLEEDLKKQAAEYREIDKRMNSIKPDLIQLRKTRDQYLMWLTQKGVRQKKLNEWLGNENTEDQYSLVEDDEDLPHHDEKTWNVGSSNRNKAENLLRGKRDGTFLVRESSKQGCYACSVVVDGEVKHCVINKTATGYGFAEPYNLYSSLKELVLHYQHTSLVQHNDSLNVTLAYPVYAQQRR
Sequence of PI3 kinase isoform γ (P48736 whole entry, canonical isoform): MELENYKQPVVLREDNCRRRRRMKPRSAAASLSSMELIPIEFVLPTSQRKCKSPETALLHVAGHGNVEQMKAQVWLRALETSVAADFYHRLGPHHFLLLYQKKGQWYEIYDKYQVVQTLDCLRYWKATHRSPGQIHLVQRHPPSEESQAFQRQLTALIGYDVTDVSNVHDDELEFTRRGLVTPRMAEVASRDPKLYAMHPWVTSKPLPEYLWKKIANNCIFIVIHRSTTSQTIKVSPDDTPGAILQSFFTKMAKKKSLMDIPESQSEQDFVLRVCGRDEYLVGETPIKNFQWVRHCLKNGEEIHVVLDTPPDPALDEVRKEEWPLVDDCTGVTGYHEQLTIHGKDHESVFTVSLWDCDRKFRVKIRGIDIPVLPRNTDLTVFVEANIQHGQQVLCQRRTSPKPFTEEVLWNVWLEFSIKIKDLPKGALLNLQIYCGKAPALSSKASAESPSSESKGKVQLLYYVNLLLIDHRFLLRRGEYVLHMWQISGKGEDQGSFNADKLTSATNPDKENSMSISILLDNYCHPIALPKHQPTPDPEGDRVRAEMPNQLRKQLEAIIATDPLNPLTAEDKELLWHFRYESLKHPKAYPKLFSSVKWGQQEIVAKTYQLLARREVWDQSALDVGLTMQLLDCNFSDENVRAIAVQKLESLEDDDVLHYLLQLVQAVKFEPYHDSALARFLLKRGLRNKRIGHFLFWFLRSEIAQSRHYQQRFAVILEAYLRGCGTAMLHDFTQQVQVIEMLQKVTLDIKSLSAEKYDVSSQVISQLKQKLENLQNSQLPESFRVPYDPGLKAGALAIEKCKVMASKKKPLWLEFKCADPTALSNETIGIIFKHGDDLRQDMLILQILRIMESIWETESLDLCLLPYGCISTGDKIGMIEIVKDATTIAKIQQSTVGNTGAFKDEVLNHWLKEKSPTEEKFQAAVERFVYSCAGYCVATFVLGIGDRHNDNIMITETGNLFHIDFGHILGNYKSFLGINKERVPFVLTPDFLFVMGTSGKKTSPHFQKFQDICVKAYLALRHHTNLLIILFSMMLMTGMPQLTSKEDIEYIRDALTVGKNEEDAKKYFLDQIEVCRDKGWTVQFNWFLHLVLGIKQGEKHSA
Sequence of PI3Kα mutation E545K (P42336 whole entry E545K, the tested form may be a part, canonical isoform): as the sequence (P42336 whole entry H1047R) above, with E545K, R1047H counted along it
Sequence of PI3Kα mutation E545K (P27986 whole entry partner, the tested form may be a part, canonical isoform): as the sequence (P27986 whole entry partner) above

One may read the IC50 as the concentration needed to halve the response being measured. For `CC(=O)Nc1cccc(-c2cnc3c(N4CCOCC4)nc(-c4cnc(N)nc4)nc3c2)c1` [Example 3, N-(3-(2-(2-Aminopyrimidin-5-yl)-4-morpholinopyrido[3,2-d]pyrimidin-7-yl)-phenyl)acetamide], the values for the IC50 at PI3Kα mutation E545K, at PI3Kα mutation H1047R and at PI3 kinase isoform γ were < 50 nM, < 50 nM and < 500 nM, respectively. For the same molecule, the “suppression of pS6RP” value in the assay on pS6RP is “suppression”.
As for `Nc1ncc(-c2nc(N3CCOCC3)c3ncc(-c4cccc(NC(=O)C5CC5)c4)cc3n2)cn1` [Example 7, N-(3-(2-(2-Aminopyrimidin-5-yl)-4-morpholinopyrido[3,2-d]pyrimidin-7-yl)-phenyl)cyclopropanecarboxamide], the IC50 on PI3Kα mutation E545K was < 50 nM; at PI3Kα mutation H1047R it was < 50 nM; at PI3 kinase isoform γ, < 500 nM.
For the molecule `N#CC1(C(=O)Nc2cccc(-c3cnc4c(N5CCOCC5)nc(-c5cnc(N)nc5)nc4c3)c2)CC1` [Example 61, N-(3-(2-(2-amino-pyrimidin-5-yl)-4-morpholinopyrido[3,2-d]pyrimidin-7-yl)phenyl)-1-cyanocyclopropane-carboxamide], in the assay on pS6RP, the “suppression of pS6RP” value is “suppression”.
